Earlier results as cited in US11318142B2, “Pharmaceutical formulation for use in the treatment of depressive and anxiety disorders” (priority 2018, dated 2022).

Conditions: in vivo

Row | half-life [h] | SMILES
1 | ~7 | COc1ccc(C(CN(C)C)C2(O)CCCCC2)cc1 (racemic) [venlafaxine, (RS)-1-[2-dimethylamino-1-(4-methoxyphenyl)-ethyl]cyclohexanol]
2 | 6 to 11 | OCCN1CCN(CCCN2c3ccccc3C=Cc3ccccc32)CC1 [opipramol, 4-[3-(5H-dibenz[b,f]azepine-5-yl)propyl]-1-piperazinethanol]
